This is an account of results in US8835617B2, “Polynucleotides encoding a human TRIM-Cyp fusion polypeptide, compositions thereof, and methods of using same” (priority 2008, dated 2014).

One test relates to HIV-1-G89V. Briefly: HIV-1-G89V CA mutant vector challenge of CRFK cells. It is filed as cell-based. The source says:
(§1) Most HIV-1 plasmids and vectors have been described previously (Berthoux et al., 2004). pNL4-3 contains a complete infectious HIV-1 provirus. pNL4-3-R5 bears the V3 loop of the CCR5-tropic 92TH014-2 HIV-1 strain (Papkalla et al., 2002). To generate pNL4-3-GFP-IRES-Nef, enhanced green fluorescent protein (eGFP) and the ECMV (encephalomyocarditis virus) IRES (internal ribosome entry site) were inserted upstream of nef pNLΔenvGFP is pNL4-3 with an env-inactivating mutation and eGFP in place of nef. CSGW is an HIV-1 vector expressing eGFP under the control of the spleen focus forming virus (SFFV) promoter. pFUPI, was engineered from pFUW (Lois et al., 2002) and uses the ubiquitin promoter to drive expression of a puromycin resistance cassette followed by ECMV IRES-T5. pAIG uses the SFFV promoter to drive expression of T5 followed by IRES-eGFP. In pscALPS, the SFFV promoter drives expression of T5 and the human CypA promoter drives expression of eGFP. For three-component vector production, HIV-1 gag and pol were expressed using either psPAX2, p8.9NΔSB, p8.9NΔSB-G89V, or p8.9NΔSB-V86P/H87Q/I91V/M96I. p8.9NΔSB-V86P/H87Q/I91V/M96I is p8.9NΔSB with the V86P/H87Q/I91V/M96I mutation (Chatterji et al., 2005) introduced in CA. […] For biochemistry, hT5Cyps were cloned into the p3xFLAG-CMV-7.1 expression vector (Sigma) and HIV-1 CA was expressed as a GST-fusion using the EF1α promoter.

In the next test the test system is HIV-1. How it is done:
CRFK, feline kidney fibroblast cells, lack endogenous T5 and are commonly used in the field as they have large T5-restriction phenotypes in single-cycle assays.
(§2) 2×10^4 adherent cells/well or 8×10^4 suspension cells/well were plated in 48-well plates (Nunc) for challenge with single-cycle GFP reporter vectors that were titered as indicated. GFP synthesis was assessed by flow cytometry 48 hrs post-infection. For spreading infection, 10^6 Jurkat cells were infected with 1 to 15 ng p24/10^6 cells of HIV-1NL4-3-GFP-IRES-Nef. Cells were split every 3 days, fixed in 0.5% paraformaldehyde/PBS, and assayed for GFP synthesis by flow cytometry. For infection of 10^6 primary CD4^+ T cells or macrophages, 15 ng p24/10^6 cells of a CXCR4- or CCR5-tropic HIV-1NL4-3 stock was used, and infection was monitored by assessing the accumulation of RT activity in the supernatant (Sayah et al., 2004). FACSCalibur, Cellquest Pro (Becton Dickinson), and FlowJo software (Treestar, Inc.) were used to record and analyze fluorescence. 1-5×10^5 events were acquired for analysis.
as §2, with “cytometry.” for “cytometry. For infection of”, “or macrophages were infected with” for “or macrophages,”, “of CXCR4” for “of a CXCR4-”, “HIV-1NL4-3 stocks, or with low passage, primary isolates HIV-1DH12” for “HIV-1NL4-3 stock was used,”, “and HIV-1132W, (Olivier Schwartz, Pasteur Institute, Paris). Infection” for “and infection”, “supernatant (7).” for “supernatant (Sayah et al., 2004).”

The next test deals with HIV-2ROD. Description: HIV-2ROD GFP vector challenge of CRFK cells expressing T5 proteins. In kind it is cell-based. Particulars: in words.
Description: (§3) Most HIV-1 plasmids and vectors have been described previously (Berthoux et al., 2004). pNL4-3 contains a complete infectious HIV-1 provirus. pNL4-3-R5 bears the V3 loop of the CCR5-tropic 92TH014-2 HIV-1 strain (Papkalla et al., 2002). To generate pNL4-3-GFP-IRES-Nef, enhanced green fluorescent protein (eGFP) and the ECMV (encephalomyocarditis virus) IRES (internal ribosome entry site) were inserted upstream of nef pNLΔenvGFP is pNL4-3 with an env-inactivating mutation and eGFP in place of nef. […] For biochemistry, hT5Cyps were cloned into the p3xFLAG-CMV-7.1 expression vector (Sigma) and HIV-1 CA was expressed as a GST-fusion using the EF1α promoter.
as §2, with “For spreading infection, 10^6 Jurkat cells were infected with 1 to 15 ng p24/10^6 cells of HIV-1NL4-3-GFP-IRES-Nef. Cells were split every 3 days, fixed in 0.5% paraformaldehyde/PBS, and assayed for GFP synthesis by flow cytometry.” left out, “1-5×10^5 events were acquired for analysis.” left out

In test [1] the test system is HIV-1NL4-3-GFP-IRES-Nef. Description: Spreading infection after electroporation of proviral DNA into Jurkat T cell lines. It is filed as cell-based. The text has this:
Studies were designed to see whether a similar system could be exploited in order to select for a T5Cyp-resistant virus. One approach was to introduce HIV-1NL4-3-GFP-IRES-Nef proviral DNA into Jurkat T cell lines expressing T5 or control by electroporation, to ensure that spreading infection was initiated by cell associated virus in the absence of free virus. […] Again no T5Cyp-resistant HIV-1 could be derived in this experimental setting.

Another test concerns SIVAGMtan. Briefly: SIVAGMtan GFP vector challenge of CRFK cells expressing T5 proteins. In kind it is cell-based. Particulars: in words.
Description: as §3
as §2, with “For spreading infection, 10^6 Jurkat cells were infected with 1 to 15 ng p24/10^6 cells of HIV-1NL4-3-GFP-IRES-Nef. Cells were split every 3 days, fixed in 0.5% paraformaldehyde/PBS, and assayed for GFP synthesis by flow cytometry.” left out, “1-5×10^5 events were acquired for analysis.” left out

Test [2] deals with V86P/H87Q/I91V/M96I HIV-1. Description: V86P/H87Q/I91V/M96I HIV-1 CA variant vector challenge. It is filed as cell-based.
Description: as §1

In a further test the test system is FIVPET. Description: FIVPET GFP vector challenge of CRFK cells expressing T5 proteins. It is filed as cell-based. The settings on record: in words.
Description: as §3
as §2, with “For spreading infection, 10^6 Jurkat cells were infected with 1 to 15 ng p24/10^6 cells of HIV-1NL4-3-GFP-IRES-Nef. Cells were split every 3 days, fixed in 0.5% paraformaldehyde/PBS, and assayed for GFP synthesis by flow cytometry.” left out, “1-5×10^5 events were acquired for analysis.” left out

Test [3] deals with HIV-1NL4-3-GFP-IRES-Nef. Description: Spreading infection of Jurkat T cells with replication-competent HIV-1. In kind it is cell-based. Particulars: for HIV-1 replication in spreading infection: in words, Jurkat, up to two months; for isolation of resistant HIV-1: wide range of inocula. How it is done:
Jurkat T cells stably transduced with T5-expression vectors were infected with replication-competent HIV-1NL4-3-GFP-IRES-Nef.
as §2
as §2, with “cytometry.” for “cytometry. For infection of”, “or macrophages were infected with” for “or macrophages,”, “of CXCR4” for “of a CXCR4-”, “HIV-1NL4-3 stocks, or with low passage, primary isolates HIV-1DH12” for “HIV-1NL4-3 stock was used,”, “and HIV-1132W, (Olivier Schwartz, Pasteur Institute, Paris). Infection” for “and infection”, “supernatant (7).” for “supernatant (Sayah et al., 2004).”

“Also recorded” adds a separate entry of the source.

For “AoT5Cyp: Aotus (owl monkey) TRIM5-cyclophilin A fusion protein [reference compound]”, the “restriction of HIV-1-G89V” value in the test with HIV-1-G89V is reported as “failed to restrict HIV-1-G89V”. In addition, the “block of HIV-1 infection relative to hT5Cyp” value in the test with HIV-1 (CRFK cells, low multiplicities of infection) was “about 10 fold”. The HIV-1 restriction activity entry in the test on HIV-1 (in words, CRFK cells) is “restricted all four lentiviruses”. In addition, the “inhibition of HIV-1” value in the test on HIV-1 (single-cycle infection of CRFK cells) was around 1000 fold. Also, in the test with HIV-2ROD, the “restriction of HIV-2ROD” value is “blocked comparably”. Besides, the “course of infection after electroporation of provirus” value in the test on HIV-1NL4-3-GFP-IRES-Nef [1] was “the infection was self-limiting”. Further, in the test on SIVAGMtan, the “restriction of SIVAGMtan” value was “restricted all four lentiviruses”. Also, the “block of V86P/H87Q/I91V/M96I HIV-1” value in test [2] is “blocked infection by viruses bearing this sequence as efficiently as they block standard HIV-1 clones”. Further, the “restriction of FIVPET” value in the test on FIVPET was “blocked comparably”. In the test on HIV-1NL4-3-GFP-IRES-Nef [3], the “HIV-1 replication in spreading infection” value was “No HIV-1 replication was detected; also recorded: HIV-1 replication was not detected” and the “isolation of resistant HIV-1” value is “could not be isolated”.

For “hT5Cyp: human TRIM5α fused at serine 322 to human cyclophilin A, SEQ ID NO:12”, the “restriction of HIV-1-G89V” value in the test with HIV-1-G89V was “failed to restrict HIV-1-G89V”. Also, in the test with HIV-1 (CRFK cells), the “potency relative to hT5αR323-332 and hT5αR332P” value is reported as around 10 fold; the “restriction of HIV-1 relative to rhT5α” value is given as around 10 fold. The “restriction of HIV-2ROD” value in the test with HIV-2ROD is “blocked comparably”. In addition, the “course of infection after electroporation of provirus” value in the test on HIV-1NL4-3-GFP-IRES-Nef [1] is “the infection was self-limiting”. Further, the “restriction of SIVAGMtan” value in the test on SIVAGMtan was “significantly better than AoT5Cyp at low MOI”. Moreover, in test [2], the “block of V86P/H87Q/I91V/M96I HIV-1” value is reported as “blocked infection by viruses bearing this sequence as efficiently as they block standard HIV-1 clones”. The “restriction of FIVPET” value in the test with FIVPET is “blocked comparably”. In addition, in the test on HIV-1NL4-3-GFP-IRES-Nef [3], the “HIV-1 replication in spreading infection” value is on record as “No HIV-1 replication was detected; also recorded: significantly greater anti-HIV-1 activity than a chimeric human/rhesus monkey TRIM5α; also recorded: HIV-1 replication was not detected; also recorded: superior anti-HIV-1 activity” and the “isolation of resistant HIV-1” value was “could not be isolated”.
